What was measured:
[1] = mn = molality of the nth substance listed, in mol/kg; conditions: 101 kPa, Liquid
[2] = refractive index (Na D-line) (dimensionless); conditions: 101.33 kPa, Liquid, Standard Abbe refractometry
[3] = 101.33 kPa, Liquid

Oc1ccccc1C=NCCN=Cc1ccccc1O [2,2'-[ethylenebis(nitrilomethylidyne)]diphenol] + C[S+](C)[O-]
mass density [kg/m3], [1]
Conditions | m1 = 0.0098 | m1 = 0.03 | m1 = 0.0502 | m1 = 0.0697 | m1 = 0.0903 | m1 = 0.1097 | m1 = 0.13 | m1 = 0.1502 | m1 = 0.1701 | m1 = 0.1893
288.15 K | 1105.42 | 1105.67 | 1105.93 | 1106.18 | 1106.45 | 1106.71 | 1106.99 | 1107.28 | 1107.55 | 1107.81
298.15 K | 1095.42 | 1095.69 | 1095.96 | 1096.23 | 1096.52 | 1096.79 | 1097.08 | 1097.39 | 1097.66 | 1097.91
308.15 K | 1085.39 | 1085.68 | 1085.97 | 1086.26 | 1086.56 | 1086.85 | 1087.14 | 1087.45 | 1087.75 | 1088.03
318.15 K | 1075.36 | 1075.67 | 1075.98 | 1076.28 | 1076.6 | 1076.9 | 1077.22 | 1077.56 | 1077.84 | 1078.13

ClC(Cl)Cl [trichloromethane]
Conditions | mass density, 283.15 K [kg/m3] | mass density, 288.15 K [kg/m3] | mass density, 293.15 K [kg/m3] | mass density, 298.15 K [kg/m3] | refractive index, 283.15 K | refractive index, 288.15 K | refractive index, 293.15 K | refractive index, 298.15 K
[2] | – | – | – | – | 1.45 | 1.4471 | 1.4439 | 1.442
[3] | 1496.43 | 1487.09 | 1477.68 | 1468.28 | – | – | – | –

C[S+](C)[O-] [dimethyl sulfoxide]
Conditions | mass density, 288.15 K [kg/m3] | mass density, 298.15 K [kg/m3] | mass density, 308.15 K [kg/m3] | mass density, 318.15 K [kg/m3] | refractive index, 288.15 K | refractive index, 298.15 K | refractive index, 308.15 K | refractive index, 318.15 K
[2] | – | – | – | – | 1.4793 | 1.4752 | 1.471 | 1.467
[3] | 1105.3 | 1095.29 | 1085.25 | 1075.21 | – | – | – | –

Oc1ccccc1C=NCCN=Cc1ccccc1O [2,2'-[ethylenebis(nitrilomethylidyne)]diphenol] + ClC(Cl)Cl
mass density [kg/m3], [1]
Conditions | m1 = 0.0099 | m1 = 0.03 | m1 = 0.0498 | m1 = 0.0702 | m1 = 0.0904 | m1 = 0.1102 | m1 = 0.1336 | m1 = 0.1501 | m1 = 0.19
283.15 K | 1495.46 | 1493.53 | 1491.63 | 1489.69 | 1487.79 | 1485.95 | 1483.73 | 1482.28 | 1478.69
288.15 K | 1486.15 | 1484.27 | 1482.44 | 1480.56 | 1478.71 | 1476.92 | 1474.75 | 1473.37 | 1469.85
293.15 K | 1476.77 | 1474.97 | 1473.19 | 1471.36 | 1469.56 | 1467.84 | 1465.71 | 1464.38 | 1460.93
298.15 K | 1467.41 | 1465.66 | 1463.95 | 1462.15 | 1460.41 | 1458.74 | 1456.68 | 1455.37 | 1452.05

Oc1ccccc1C=NCCN=Cc1ccccc1O [2,2'-[ethylenebis(nitrilomethylidyne)]diphenol] + ClCCl
mass density [kg/m3], [1]
Conditions | m1 = 0.0306 | m1 = 0.049 | m1 = 0.0703 | m1 = 0.0903 | m1 = 0.1103 | m1 = 0.1301 | m1 = 0.15 | m1 = 0.1702 | m1 = 0.1911
283.15 K | 1342.32 | 1341.5 | 1340.58 | 1339.65 | 1338.77 | 1337.88 | 1337.01 | 1336.07 | 1335.14
288.15 K | 1333.32 | 1332.54 | 1331.67 | 1330.82 | 1329.93 | 1329.12 | 1328.26 | 1327.34 | 1326.47
293.15 K | 1324.26 | 1323.56 | 1322.69 | 1321.91 | 1321.06 | 1320.31 | 1319.5 | 1318.65 | 1317.78
298.15 K | 1315.18 | 1314.5 | 1313.71 | 1312.95 | 1312.16 | 1311.43 | 1310.67 | 1309.84 | 1309.07

ClCCl [dichloromethane]
Conditions | mass density, 283.15 K [kg/m3] | mass density, 288.15 K [kg/m3] | mass density, 293.15 K [kg/m3] | mass density, 298.15 K [kg/m3] | refractive index, 283.15 K | refractive index, 288.15 K | refractive index, 293.15 K | refractive index, 298.15 K
[2] | – | – | – | – | 1.4305 | 1.4276 | 1.4251 | 1.4219
[3] | 1343.65 | 1334.57 | 1325.43 | 1316.27 | – | – | – | –

Oc1ccccc1C=NCCN=Cc1ccccc1O [2,2'-[ethylenebis(nitrilomethylidyne)]diphenol] + CN(C)C=O
mass density [kg/m3], [1]
Conditions | m1 = 0.0302 | m1 = 0.049 | m1 = 0.0701 | m1 = 0.0913 | m1 = 0.1101 | m1 = 0.1238 | m1 = 0.1483 | m1 = 0.1702 | m1 = 0.1886
288.15 K | 954.99 | 955.87 | 956.86 | 957.85 | 958.72 | 959.36 | 960.5 | 961.48 | 962.35
298.15 K | 945.49 | 946.39 | 947.39 | 948.39 | 949.27 | 949.91 | 951.05 | 952.08 | 952.94
308.15 K | 935.97 | 936.88 | 937.89 | 938.9 | 939.79 | 940.44 | 941.6 | 942.63 | 943.48
318.15 K | 926.38 | 927.29 | 928.32 | 929.35 | 930.25 | 930.91 | 932.08 | 933.14 | 933.99

CN(C)C=O [dimethylformamide]
Conditions | mass density, 288.15 K [kg/m3] | mass density, 298.15 K [kg/m3] | mass density, 308.15 K [kg/m3] | mass density, 318.15 K [kg/m3] | refractive index, 288.15 K | refractive index, 298.15 K | refractive index, 308.15 K | refractive index, 318.15 K
[2] | – | – | – | – | 1.431 | 1.4276 | 1.423 | 1.418
[3] | 953.58 | 944.06 | 934.52 | 924.9 | – | – | – | –

Oc1ccccc1C=NCCN=Cc1ccccc1O [2,2'-[ethylenebis(nitrilomethylidyne)]diphenol] + CC(=O)N(C)C
mass density [kg/m3], [1]
Conditions | m1 = 0.0298 | m1 = 0.0503 | m1 = 0.0704 | m1 = 0.0902 | m1 = 0.11 | m1 = 0.13 | m1 = 0.151 | m1 = 0.1699 | m1 = 0.1898
288.15 K | 946.92 | 947.9 | 948.86 | 949.8 | 950.76 | 951.71 | 952.73 | 953.61 | 954.55
298.15 K | 937.72 | 938.72 | 939.69 | 940.66 | 941.6 | 942.56 | 943.57 | 944.49 | 945.43
308.15 K | 928.51 | 929.52 | 930.5 | 931.48 | 932.43 | 933.41 | 934.41 | 935.35 | 936.28
318.15 K | 919.27 | 920.29 | 921.29 | 922.28 | 923.25 | 924.23 | 925.25 | 926.19 | 927.14

CC(=O)N(C)C [N,N-dimethylethanamide]
Conditions | mass density, 288.15 K [kg/m3] | mass density, 298.15 K [kg/m3] | mass density, 308.15 K [kg/m3] | mass density, 318.18 K [kg/m3] | refractive index, 288.15 K | refractive index, 298.15 K | refractive index, 308.15 K | refractive index, 318.18 K
[2] | – | – | – | – | 1.4382 | 1.4346 | 1.4312 | 1.426
[3] | 945.5 | 936.28 | 927.05 | 917.79 | – | – | – | –

— the NIST ThermoML archive (doi:10.1021/je100369a)
